# Assays:
# [1] = tested on: P. aeruginosa; conditions: cited from earlier work
# [2] = tested on: P. aeruginosa; assay: Adjunct ozone and antibiotic therapy antibacterial test; format: cell-based; conditions: ozone 100 ppm (4 mg/hr) for six hours; antibiotic 20 μg/mL; 37° C.
# Description: To test the antibacterial effects of ozone in combination with antibiotics, a P. aeruginosa culture was inoculated in a solution of […] soy broth (TSB) and incubated overnight. A sample of the mature culture was diluted in new TSB at 1:50. The new culture media was then pipetted into test wells in triplicate at 1:10 with either linezolid or vancomycin solution in phosphate buffered saline (PBS) at 200 μg/mL. […] The bacterial samples were subject to the combination treatment of 100 ppm (4 mg/hr) ozone with vancomycin at 20 μg/mL and linezolid at 20 μg/mL. During testing, the test samples were kept at 37° C. At 2, 4, and six hours, 20 μL samples were withdrawn from the designated set of wells and plated on TSB agar plates. Bacterial colonies were counted after being incubated overnight at 37°. Experimental adjunct therapy samples were compared against treatment of only ozone, and control cultures exposed to antibiotics without the ozone. Because both antibiotics in the test (linezolid and vancomycin) are designed to be effective against G+ve bacteria, it was expected that neither will show any effect against the bacterial strain unless combined with ozone. Additionally, treatment was administered to in vitro colonies of P. aeruginosa under ideal conditions for bacterial growth.
# [3] = tested on: S. epidermidis; conditions: cited from earlier work
# [4] = tested on: normal mammary fibroblasts HMS-32 cells; assay: Cytotoxicity of ozone treatment on human cells; format: cell-based
# Description: FIGS. 10A through 10D include images of normal mammary fibroblasts HMS-32 cells initial (FIG. 10A), after six hours of ozone treatment (FIG. 10B), 24 hours after ozone treatment (FIG. 10C), and 48 hours after ozone treatment (FIG. 10D). Scale bar 10 micrometers. FIG. 10E contains a graph showing percentage of apoptotic cells at each time in a control group and an experimental group. Data was collected from triplicate samples, with error bars indicating standard deviation.
# The possibility for the use of ozone to treat antibiotic resistant infections is also dependent on the apparatus not damaging the normal skin cells. Cytotoxic experimentation was conducted to determine how the ozone treatment would interact with human skin cells (FIG. 10A through 10D). […] Ozone treatment has been used to increase the healing process for chronic wounds, so there is good reason to believe a high level of biocompatibility exists. […] Similar to the stain imaging done for the antimicrobial results, FIGS. 10A through 10D are stain images that show the health of the cells at each time point. In each cell, F-actin was stained green, and the nuclei were stained blue. These images support finding minimal cytotoxicity because there is no noticeable difference in the images over time. […]
# [5] = tested on: P. aeruginosa; assay: Secondary study: pristine vs biofluid-preconditioned patch, bacteria spotted on filter paper; format: cell-based; conditions: ozone for six hours
# Description: A secondary study was also conducted on P. aeruginosa to verify that prolonged contact to a wound environment would not change antimicrobial properties. In each case, 100 μL of P. aeruginosa was diluted into 1 mL of PBS and spotted onto filter paper. Each experimental trial was exposed to the ozone for six hours. The first test was conducted through an untreated patch 10, while the second was conducted using a patch 10 that had been preconditioned by resting on a damp sponge filled with mammalian cell culture media overnight. FIGS. 9A and 9B report the results of the tests when compared to the controls, which were prepared in the same way, but exposed to no ozone treatment.
# [6] = tested on: P. aeruginosa ATCC 15442; assay: Antibacterial test of ozone applied by the patch; format: cell-based; conditions: initial 5 log CFU/mL concentration; within six hours of treatment
# Description: (§1) The antibacterial properties of the patch 10 were assessed by exposing multiple strains of antibiotic resistant bacteria (both Gram-negative and Gram-positive) to the ozone applied by the patch 10 for six hours, and measuring the living concentration every one to two hours. Experiments using two common strains of antibiotic resistant bacteria common in skin infections, S. epidermidis NRS101 and P. aeruginosa ATCC 15442, indicated positive results. […] FIGS. 8A through 8C show bacteria stain images of the samples before and after treatment, and a control. At first, all of the bacteria were stained green, and then any dead bacteria were re-stained with the red. These images show qualitatively that the bacteria before the treatment are living, and afterward are mostly dead. […] Additionally, results for the Gram-negative bacteria, P. aeruginosa, indicated even better results. […] FIGS. 8D, 8E, and 8F show similar stain images for P. aeruginosa.
# [7] = tested on: S. epidermidis NRS101; assay: Antibacterial test of ozone applied by the patch; format: cell-based; conditions: six hours of ozone exposure through the patch
# Description: as §1
# [8] = tested on: human keratinocyte cells; assay: Biocompatibility of adjunct therapy; format: cell-based; conditions: six hour, 100 ppm ozone; nanofiber solution with or without antibiotic
# Description: By studying the biocompatibility, it was determined that the treatment system was both effective and safe to use. To test this, human keratinocyte cells were either exposed to the ozone therapy (with or without antibiotics) or left as a control. In each case, cell samples were exposed to test inhibitory concentration of the nanofiber solution containing either linezolid, vancomycin, or no antibiotic. Tests were conducted under the same six hour and 100 ppm ozone parameters as the antibacterial studies.
compound,measurement,setting,value
C[C@@H](O)[C@H]1C(=O)N2C(C(=O)O)=C(S[C@@H]3CN[C@H](C(=O)N(C)C)C3)[C@H](C)[C@H]12 [meropenem],known effectiveness / resistance,[1],known to be effective
CC(=O)NC[C@H]1CN(c2ccc(N3CCOCC3)c(F)c2)C(=O)O1 [linezolid],bacterial population (CFU/mL) compared to initial,[2],did not inhibit the growth of the bacteria at all
penicillin,known effectiveness / resistance,[1],resisted
same,known effectiveness / resistance,[3],resisted
colistin,known effectiveness / resistance,[1],known to be effective
CN[C@H](CC(C)C)C(=O)N[C@H]1C(=O)N[C@@H](CC(N)=O)C(=O)N[C@H]2C(=O)N[C@H]3C(=O)N[C@H](C(=O)N[C@H](C(=O)O)c4cc(O)cc(O)c4-c4cc3ccc4O)[C@H](O)c3ccc(c(Cl)c3)Oc3cc2cc(c3O[C@@H]2O[C@H](CO)[C@@H](O)[C@H](O)[C@H]2O[C@H]2C[C@](C)(N)[C@H](O)[C@H](C)O2)Oc2ccc(cc2Cl)[C@H]1O [vancomycin],known effectiveness / resistance,[3],known to be effective
same,bacterial population (CFU/mL) compared to initial,[2],no impact on bacteria growth
O=[O+][O-] [ozone],increase in cell apoptosis,"[4]; after six, 24 and 48 hours",no significant increase in cell apaptosis
same,increase in cell apoptosis,[4]; over 48 hours after six hours of ozone exposure,6.5%
same,elimination of bacteria,[5]; patch preconditioned overnight on sponge with mammalian cell culture media,complete elimination of bacteria
same,elimination of bacteria,[5]; untreated (pristine) patch,complete elimination of bacteria
same,eradication of bacteria,[6],completely eradicate
same,log10 reduction CFU/mL,[7],0.8 log10 reduction CFU/mL
same,reduction from the starting inoculum,[7],greater than 70%
same,percent of cell viability,[8],did not significantly change
Cc1onc(-c2ccccc2)c1C(=O)N[C@@H]1C(=O)N2[C@@H]1SC(C)(C)[C@@H]2C(=O)O [oxacillin],known effectiveness / resistance,[3],resisted
NC[C@H]1O[C@H](O[C@H]2[C@H](O)[C@@H](O[C@H]3O[C@H](CO)[C@@H](O)[C@H](N)[C@H]3O)[C@H](N)C[C@@H]2N)[C@H](N)C[C@@H]1O [tobramycin],known effectiveness / resistance,[1],resisted

# Source: patent US20230256217A1, “OZONE GENERATION APPARATUSES AND METHODS OF TREATING WOUNDS” (priority 2020, published 2023)
